Experimental data reported in US20230083973A1, “SUBSTITUTED CYCLOPROPYL-2,2'-BIP[…], ANALOGUES THEREOF, AND METHODS USING SAME” (priority 2019, published 2023).
Where two headings read alike, the source gives them in different places.

Test system: HBsAg
Assay: HBsAg assay: inhibition of HBsAg in HepG2.2.15 cells (chemiluminescence immunoassay of supernatant)
Type: cell-based, hepatitis B virus
Details: HBsAg in supernatant at day 6 after exposure to compound, 0.5% DMSO
Procedure, shortened: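 Secreted HBsAg quantified by CLIA in day-6 supernatants of HepG2.2.15 cultures given compound dilutions at 0.5% final DMSO, with one compound/medium replenishment after 2–3 days. Dose-response fits gave EC50 (50% inhibition); viability checked separately by CellTiter-Glo.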

[1] = read-out: sAg EC50, HepG2.2.15 cells
[2] = Hepatitis B virus, HepG2.2.15, 144 h, read-out: sAg EC50, HepG2.2.15 cells

SMILES	EC50 [1]	EC50 [2]
COCCCOc1cc(C2CC2c2cnc(-c3ncccn3)nc2)cc(F)c1F (single isomer, unassigned) [Example 131, trans-5-(2-(3,4-Difluoro-5-(3-methoxypropoxy)phenyl)cyclopropyl)-2,2′-bipyrimidine]	15 nM	
COc1cc(C2CC2c2cnc(-c3ncccn3)nc2)c(C)cc1Cl (single isomer, unassigned) [Example 51, trans-5-(2-(4-Chloro-5-methoxy-2-methylphenyl)cyclopropyl)-2,2′-bipyrimidine]	290 nM	
COc1cc(C2CC2c2cnc(-c3ncccn3)nc2)cc(C)c1F (single isomer, unassigned) [Example 150, trans-5-(2-(4-Fluoro-3-methoxy-5-methylphenyl)cyclopropyl)-2,2′-bipyrimidine]	1000 nM	
COc1cccnc1-c1ncc([C@@H]2C[C@H]2c2cc(F)c(F)c(OC)c2)cn1 (relative stereo) [Example 180, trans-5-(2-(3,4-Difluoro-5-methoxyphenyl)cyclopropyl)-2-(3-methoxypyridin-2-yl)pyrimidine]		1000 nM
Fc1cc([C@@H]2C[C@H]2c2cnc(-c3ncccn3)nc2)cc(OCCCN2CCOCC2)c1F (relative stereo) [Example 240, trans-4-(3-(5-(2-([2,2′-Bipyrimidin]-5-yl)cyclopropyl)-2,3-difluorophenoxy)propyl)morpholine]		210 nM
CS(=O)(=O)N1CCN(c2cc(C3CC3c3cnc(-c4ncccn4)nc3)ccc2F)CC1 (single isomer, unassigned) [Example 41, trans-5-(2-(4-Fluoro-3-(4-(methylsulfonyl)piperazin-1-yl)phenyl)cyclopropyl)-2,2′-bipyrimidine]	4000 nM	
Fc1cc([C@@H]2C[C@H]2c2cnc(-c3ncccn3)nc2)cc(F)c1F (relative stereo) [Example 160, trans-5-(2-(3,4,5-Trifluorophenyl)cyclopropyl)-2,2′-bipyrimidine]		270 nM
COc1cc(C2CC2c2ccc(-c3ncccn3)nc2)cc(F)c1F (single isomer, unassigned) [Example 124, trans-2-(5-(2-(3,4-Difluoro-5-methoxyphenyl)cyclopropyl)pyridin-2-yl)pyrimidine]	290 nM	
c1cnc(-c2ncc([C@@H]3C[C@H]3c3ccc4ccccc4c3)cn2)nc1 (relative stereo) [Example 167, trans-5-(2-(Naphthalen-2-yl)cyclopropyl)-2,2′-bipyrimidine]		180 nM
CN(CCO)c1cc([C@@H]2C[C@H]2c2cnc(-c3ncccn3)nc2)cc(F)c1F (relative stereo) [Example 244, trans-2-((5-(2-([2,2′-Bipyrimidin]-5-yl)cyclopropyl)-2,3-difluorophenyl)(methyl)amino)ethan-1-ol]		92 nM
COc1cc(C2CC2c2cnc(-c3ncccn3)nc2)ccc1F (single isomer, unassigned) [Example 10, trans-5-(2-(4-Fluoro-3-methoxyphenyl)cyclopropyl)-2,2′-bipyrimidine]	40 nM	
COCCCn1cc2c([C@@H]3C[C@H]3c3cnc(-c4ncccn4)nc3)ccc(F)c2n1 (relative stereo) [Example 277, trans-4-(2-([2,2′-Bipyrimidin]-5-yl)cyclopropyl)-7-fluoro-2-(3-methoxypropyl)-2H-indazole]		30 nM
COc1cc(C2CC2c2cnc(-c3ncccn3)nc2)cc(C)c1Cl (single isomer, unassigned) [Example 57, trans-5-(2-(4-Chloro-3-methoxy-5-methylphenyl)cyclopropyl)-2,2′-bipyrimidine]	63 nM	
COCCOC1CN(c2cc([C@@H]3C[C@H]3c3cnc(-c4ncccn4)nc3)cc(F)c2F)C1 (relative stereo) [Example 212, trans-5-(2-(3,4-Difluoro-5-(3-(2-methoxyethoxy)azetidin-1-yl)phenyl)cyclopropyl)-2,2′-bipyrimidine]		30 nM
